Consider seven compounds from ChEMBL document CHEMBL5523704, “Exploration of isoxazole analogs: Synthesis, COX inhibition, anticancer screening, 3D multicellular tumor spheroids, and molecular modeling” (Eur J Med Chem, 2024).

Converted amounts (≈) assume the structure as drawn.

In data set [1] the target is T1, Prostaglandin G/H synthase 1 (Bos taurus, UniProt O62664).
T1 sequence (O62664 whole entry): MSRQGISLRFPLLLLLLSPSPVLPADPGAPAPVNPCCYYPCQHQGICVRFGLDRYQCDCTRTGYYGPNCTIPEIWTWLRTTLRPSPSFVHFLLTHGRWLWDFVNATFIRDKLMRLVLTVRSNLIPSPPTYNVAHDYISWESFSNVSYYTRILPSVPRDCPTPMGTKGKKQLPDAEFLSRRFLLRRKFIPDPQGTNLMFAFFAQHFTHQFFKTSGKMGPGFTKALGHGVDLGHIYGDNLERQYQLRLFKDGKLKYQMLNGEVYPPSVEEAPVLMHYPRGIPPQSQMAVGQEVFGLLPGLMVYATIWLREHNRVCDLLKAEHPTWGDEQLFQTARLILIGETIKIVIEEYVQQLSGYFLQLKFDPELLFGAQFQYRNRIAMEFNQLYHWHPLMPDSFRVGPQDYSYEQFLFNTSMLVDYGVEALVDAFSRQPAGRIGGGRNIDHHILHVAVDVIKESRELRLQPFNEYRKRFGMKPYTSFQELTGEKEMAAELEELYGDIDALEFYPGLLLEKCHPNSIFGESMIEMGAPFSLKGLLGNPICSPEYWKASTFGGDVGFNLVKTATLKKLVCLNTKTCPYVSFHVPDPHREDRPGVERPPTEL
Nature of the data set: Inhibition of bovine COX-1 using arachidonic acid as substrate preincubated for 10 mins followed by substrate addition and measured after 5 mins by ELISA method.

A short description of data set [2]: Inhibition of human recombinant COX-1 using arachidonic acid as substrate preincubated for 10 mins followed by substrate addition and measured after 5 mins by ELISA method. For orientation: ELISA stands for enzyme-linked immunosorbent assay.
A further data set has as its system COLO 205. Nature of the data set: Antiproliferative activity against human COLO 205 cells incubated for 72 hrs by MTS assay. Format: functional, cell-based. The conditions noted are these: COLO 205, 72 h. On the technique in general: Formazan colour is commonly taken as a measure of viable cells.
The subject of data set [3] is HeLa. The data set is described as follows: Antiproliferative activity against human HeLa cells by MTS assay. It counts as functional, cell-based.
The subject of data set [4] is Hep 3B2. The data set is described as follows: Antiproliferative activity against human Hep3B cells by MTS assay. Format: functional, cell-based.
For the next data set, the system named is Huh-7. Nature of the data set: Antiproliferative activity against human Huh-7 cells incubated for 72 hrs by SRB method. It counts as functional, cell-based. The conditions noted are these: Huh-7, 72 h. A general note: In SRB staining, fixed cells bind dye roughly in proportion to their protein.
Another data set deals with HCT-116. Nature of the data set: Antiproliferative activity against human HCT-116 cells incubated for 72 hrs by SRB method. Format: functional, cell-based. The conditions noted are these: HCT-116, 72 h.
The test system of data set [5] is Hep 3B2. The data set is described as follows: Antiproliferative activity against human Hep3B cells. Format: functional, cell-based.
In data set [6] the test system is MCF7. Nature of the data set: Antiproliferative activity against human MCF7 cells. It counts as functional, cell-based.
A short description of data set [7]: Antiproliferative activity against HEK293T cells assessed as inhibition of cell growth incubated for 48 hrs by CellTiter 96 Aqueous One Solution Cell Proliferation Assay. Format: toxicity, cell-based, HEK-293T. The conditions noted are these: human.
Data set [8] has as its system HeLa. The data set is described as follows: cells. The conditions noted are these: Homo sapiens, 48 h.
Description: Antiproliferative activity against human HeLa cells assessed as inhibition of cell growth incubated for 48 hrs by CellTiter 96 Aqueous One Solution Cell Proliferation Assay
Data set [9] concerns Hep 3B2. Nature of the data set: cells. The conditions noted are these: Homo sapiens, Hep3B, 48 h.
Description: Antiproliferative activity against human Hep3B cells assessed as inhibition of cell growth incubated for 48 hrs by CellTiter 96 Aqueous One Solution Cell Proliferation Assay
Data set [10] has as its system MCF7. The data set is described as follows: cells. The conditions noted are these: Homo sapiens, MCF7, 48 h.
Description: Antiproliferative activity against human MCF7 cells assessed as inhibition of cell growth incubated for 48 hrs by CellTiter 96 Aqueous One Solution Cell Proliferation Assay
In a further data set the test system is Caco-2. Nature of the data set: Antiproliferative activity against human Caco-2 cells assessed as inhibition of cell growth incubated for 48 hrs by CellTiter 96 Aqueous One Solution Cell Proliferation Assay. Format: functional, cell-based. The settings on record: Caco-2, 48 h.
Data set [11] in a line: Antiproliferative activity against human LX2 cells assessed as inhibition of cell growth incubated for 48 hrs by CellTiter 96 Aqueous One Solution Cell Proliferation Assay. It counts as toxicity, cell-based. The settings on record: LX-2 cells.
Another data set concerns HepG2. The data set is described as follows: cells. The conditions noted are these: Homo sapiens, HepG2, 48 h.
The target in data set [12] is T2, Prostaglandin G/H synthase 1 (Ovis aries, UniProt P05979).
T2 sequence (P05979 whole entry): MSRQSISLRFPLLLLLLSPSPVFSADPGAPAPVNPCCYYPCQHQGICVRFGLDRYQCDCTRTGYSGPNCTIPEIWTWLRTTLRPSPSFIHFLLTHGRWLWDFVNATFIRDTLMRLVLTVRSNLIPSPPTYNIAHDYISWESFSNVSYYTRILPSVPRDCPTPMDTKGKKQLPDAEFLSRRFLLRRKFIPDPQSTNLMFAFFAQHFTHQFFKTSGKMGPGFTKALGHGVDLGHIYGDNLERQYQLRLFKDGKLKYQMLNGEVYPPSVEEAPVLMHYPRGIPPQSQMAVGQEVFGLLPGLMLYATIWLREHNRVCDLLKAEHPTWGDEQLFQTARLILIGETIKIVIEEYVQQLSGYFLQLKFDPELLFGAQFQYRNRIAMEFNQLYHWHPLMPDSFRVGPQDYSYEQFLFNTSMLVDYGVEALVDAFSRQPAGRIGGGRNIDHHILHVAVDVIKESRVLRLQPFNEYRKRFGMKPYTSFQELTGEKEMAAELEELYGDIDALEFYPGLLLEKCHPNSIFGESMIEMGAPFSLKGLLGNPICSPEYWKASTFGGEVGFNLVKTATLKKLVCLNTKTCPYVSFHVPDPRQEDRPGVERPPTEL
Description: Inhibition of ovine COX-1 by EIA method

Description for HepG2: Antiproliferative activity against human HepG2 cells assessed as inhibition of cell growth incubated for 48 hrs by CellTiter 96 Aqueous One Solution Cell Proliferation Assay

`COc1cccc(-c2nc(C(=O)Nc3ccc(C(F)(F)F)cc3)cs2)c1`: the concentration for half-maximal inhibition (IC50) (commonly the point on the concentration scale where inhibition reaches its midpoint) in data set [1] came to 239 nM; in [2], 191 nM; with COLO 205, 30800 nM.

`COc1ccc(NC(=O)c2c(-c3ccccc3Cl)noc2C)cc1OC`: the half-inhibitory concentration (IC50) turned out to be 15.5 µg/mL (≈ 41.5 µM) in the data set with HeLa [3] and 24 µg/mL (≈ 64.3 µM) in the data set on Hep 3B2 [4].

Regarding `COc1ccc(-c2nc(C(=O)Nc3cc(OC)c(OC)c(OC)c3)cs2)cc1`, the results for the IC50 in the data set with Huh-7 and in the data set with HCT-116 were 17500 nM and 14600 nM, respectively.

With `Cc1onc(-c2c(F)cccc2Cl)c1C(=O)Nc1ccc(C(C)(C)C)cc1`, the half-inhibitory concentration (IC50) is 2.77 µg/mL (≈ 7.16 µM) with Hep 3B2 [5] and 9.31 µg/mL (≈ 24.1 µM) in the data set with MCF7 [6].

With `COc1cccc2c1C(=O)c1c(O)c3c(c(O)c1C2=O)C[C@@](O)(C(=O)CO)C[C@@H]3O[C@H]1C[C@H](N)[C@H](O)[C@H](C)O1` [DOXORUBICIN], the half-inhibitory concentration (IC50) at 48 h was 38 nM in data set [7] and 210 nM in [11]. Further, the IC50 in the data set with HeLa [8] is below 10 nM; with Hep 3B2 [9], 25 nM; in the data set with MCF7 [10], 53 nM; in the data set on Caco-2 it was 24 nM.

With `O=c1[nH]cc(F)c(=O)[nH]1` [FLUOROURACIL], the half-maximal inhibitory concentration (IC50) at 48 h stood at 4070 nM in data set [7] and 178 nM in [11]. Moreover, the IC50 came to 7790 nM in the data set with HeLa [8]; 5110 nM in the data set with Hep 3B2 [9]; 6510 nM with MCF7 [10]; 4750 nM with Caco-2; 4070 nM in the data set on HepG2.

In data set [12], `CC(C(=O)O)c1cccc(C(=O)c2ccccc2)c1` (stereo not drawn) [KETOPROFEN] came in with an IC50 of 35 nM.
